In the NIST ThermoML archive (doi:10.1021/acs.jced.5b00503):
Numbers after ± are expanded uncertainties.

Assays:
[1] = 101 kPa, Liquid, Falling or rolling sphere viscometry
[2] = xn = mol fraction of the nth substance listed; details: 101 kPa, Liquid, Falling or rolling sphere viscometry

CCCCCC[n+]1ccn(C)c1.O=S(=O)([N-]S(=O)(=O)C(F)(F)F)C(F)(F)F
[1]
Details	viscosity [mPa·s]
288.2 K	117.8 ± 5.8
298.2 K	70.4 ± 3
308.2 K	45.4 ± 1.9
318.2 K	31.23 ± 1.3

CCCCCC[n+]1ccn(C)c1.O=S(=O)([N-]S(=O)(=O)C(F)(F)F)C(F)(F)F + ClC(Cl)Cl
viscosity [mPa·s], [2]
Details	288.2 K	298.2 K	308.2 K	318.2 K
x1 = 0.074	1.701 ± 0.1	1.462 ± 0.089	1.265 ± 0.077	1.104 ± 0.067
x1 = 0.186	4.556 ± 0.28	3.667 ± 0.22	3.002 ± 0.18	2.5 ± 0.15
x1 = 0.266	8.57 ± 0.37	6.63 ± 0.28	5.25 ± 0.22	4.29 ± 0.18
x1 = 0.418	20.36 ± 0.86	14.63 ± 0.62	10.96 ± 0.46	8.5 ± 0.36
x1 = 0.511	30.16 ± 1.3	20.92 ± 0.89	15.19 ± 0.64	11.49 ± 0.48
x1 = 0.565	38 ± 1.6	25.55 ± 1.1	18.18 ± 0.77	13.58 ± 0.57
x1 = 0.651	50.6 ± 2.1	33.3 ± 1.4	23.1 ± 1	16.97 ± 0.72
x1 = 0.707	60.6 ± 2.6	38.9 ± 1.7	26.6 ± 1.1	19.16 ± 0.81
x1 = 0.805	78.4 ± 3.5	49.6 ± 2.1	33.7 ± 1.4	24 ± 1
x1 = 0.906	95.7 ± 4.5	59.1 ± 2.5	39.5 ± 1.7	27.7 ± 1.2
x1 = 1	117.8 ± 5.8	70.4 ± 3	45.4 ± 1.9	31.23 ± 1.3
